Assay results reported in patent US9499550B2 (BRISTOL-MYERS SQUIBB COMPANY, priority 2012, dated 2016).
Like-named read-outs stand apart in the source and are kept apart here.

Legend:
[1] = system: HCV genotype 1a (H77 strain) replicon in HUH-7 cells; test: HCV replicon luciferase reporter assay, genotype 1a; format: cell-based; details: Hepatitis C virus, Huh-7, 72 h, HCV genotype 1a replicon luciferase, 3 days incubation
Method in brief: (§1)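 Replicon inhibition for both genotypes was measured as Renilla luciferase signal (EnduRen, 7.5 μM final, 2 h) after 3-day, 37° C exposure of replicon-bearing HUH-7 cells in 4% FCS DMEM, 0.5% DMSO. The 1b construct carries S1179I; the 1a H77 construct carries P1496L and S2204I. Twenty-point, 3-fold dilutions were fitted four-parametrically for EC50, and CC50 was taken from multiplexed Cell Titer-Blue.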

[2] = system: HCV genotype 1b (Con1) replicon in HUH-7 cells; test: HCV replicon luciferase reporter assay, genotype 1b; format: cell-based; details: Hepatitis C virus, Huh-7, 72 h, HCV genotype 1b replicon luciferase, 3 days incubation
Method in brief: as §1

CC[C@@H]1C[C@H](C)CC/C=C\[C@@H]2C[C@@]2(C(=O)NS(=O)(=O)C2(C)CC2)NC(=O)[C@@H]2C[C@@H](Oc3nnc(OC)c4ccccc34)CN2C(=O)[C@H]1NC(=O)NC(C)(C)C [Compound 5024, (2R,6S,7R,9R,13aS,14aR,16aS,Z)-6-(3-(tert-butyl)ureido)-7-ethyl-2-((4-methoxyphthalazin-1-yl)oxy)-9-methyl-N-((1-methylcyclopropyl)sulfonyl)-5,16-dioxo-1,2,3,5,6,7,8,9,10,11,13a,14,14a,15,16,16a-hexadecahydrocyclopropa[e]pyrrolo[1,2-a][1,4]diazacyclopentadecine-14a-carboxamide]
EC50 ([1]; read-out: LE_1a (EC50, range)): < 5.46 nM | EC50 ([2]; read-out: LE_1b (EC50, range)): < 5.46 nM

CC[C@@H]1C[C@@H](C)CC/C=C\[C@@H]2C[C@@]2(C(=O)NS(=O)(=O)C2(C)CC2)NC(=O)[C@@H]2C[C@@H](Oc3nnc(OC)c4ccccc34)CN2C(=O)[C@H]1NC(=O)OC(C)(C)C [Compound 5025, tert-butyl ((2R,6S,7R,9S,13aS,14aR,16aS,Z)-7-ethyl-2-((4-methoxyphthalazin-1-yl)oxy)-9-methyl-14a-(((1-methylcyclopropyl)sulfonyl)carbamoyl)-5,16-dioxo-1,2,3,5,6,7,8,9,10,11,13a,14,14a,15,16,16a-hexadecahydrocyclopropa[e]pyrrolo[1,2-a][1,4]diazacyclopentadecin-6-yl)carbamate]
EC50 ([1]; read-out: LE_1a (EC50, range)): 4.82 to 103 nM | EC50 ([2]; read-out: LE_1b (EC50, range)): < 5.46 nM

CC[C@@H]1C[C@H](C)CC/C=C\[C@@H]2C[C@@]2(C(=O)NS(=O)(=O)C2(C)CC2)NC(=O)[C@@H]2C[C@@H](Oc3nnc(OC)c4ccccc34)CN2C(=O)[C@H]1NC(=O)OC(C)(C)C [Compound 5026, tert-butyl ((2R,6S,7R,9R,13aS,14aR,16aS,Z)-7-ethyl-2-((4-methoxyphthalazin-1-yl)oxy)-9-methyl-14a-(((1-methylcyclopropyl)sulfonyl)carbamoyl)-5,16-dioxo-1,2,3,5,6,7,8,9,10,11,13a,14,14a,15,16,16a-hexadecahydrocyclopropa[e]pyrrolo[1,2-a][1,4]diazacyclopentadecin-6-yl)carbamate]
EC50 ([1]; read-out: LE_1a (EC50, range)): < 5.46 nM | EC50 ([2]; read-out: LE_1b (EC50, range)): < 5.46 nM

COc1nnc(O[C@@H]2C[C@H]3C(=O)N[C@]4(C(=O)NS(=O)(=O)C5(CF)CC5)C[C@H]4/C=C\CC[C@@H](C)C[C@@H](C)[C@H](NC(=O)OC(C)(C)C(F)(F)F)C(=O)N3C2)c2ccccc12 [Compound 5027]
EC50 ([1]; GETYPE1A, read-out: LE_1a (EC50, range)): < 5.46 nM | EC50 ([2]; GETYPE1B, read-out: LE_1b (EC50, range)): < 5.46 nM

CCOc1nnc(O[C@@H]2C[C@H]3C(=O)N[C@]4(C(=O)NS(=O)(=O)C5(C)CC5)C[C@H]4/C=C\CC[C@H](C)C[C@@H](C)[C@H](NC(=O)OC(C)(C)C)C(=O)N3C2)c2ccccc12 [Compound 5028, tert-butyl ((2R,6S,7R,9S,13aS,14aR,16aS,Z)-2-((4-ethoxyphthalazine-1-yl)oxy)-7,9-dimethyl-14a-(((1-methylcyclopropyl)sulfonyl)carbamoyl)-5,16-dioxo-1,2,3,5,6,7,8,9,10,11,13a,14,14a,15,16,16a-hexadecahydrocyclopropa[e]pyrrolo[1,2-a][1,4]diazacyclopentadecin-6-yl)carbamate]
EC50 ([1]; read-out: LE_1a (EC50)): 6.28 nM | EC50 ([1]; read-out: LE_1a (EC50, range)): 4.82 to 103 nM | EC50 ([2]; read-out: LE_1b (EC50)): 2.96 nM | EC50 ([2]; read-out: LE_1b (EC50, range)): < 5.46 nM

CCOc1nnc(O[C@@H]2C[C@H]3C(=O)N[C@]4(C(=O)NS(=O)(=O)C5(C)CC5)C[C@H]4/C=C\CC[C@@H](C)C[C@@H](C)[C@H](NC(=O)OC(C)(C)C)C(=O)N3C2)c2ccccc12 [Compound 5029, tert-butyl ((2R,6S,7R,9R,13aS,14aR,16aS,Z)-2-((4-ethoxyphthalazin-1-yl)oxy)-7,9-dimethyl-14a-(((1-methylcyclopropyl)sulfonyl)carbamoyl)-5,16-dioxo-1,2,3,5,6,7,8,9,10,11,13a,14,14a,15,16,16a-hexadecahydrocyclopropa[e]pyrrolo[1,2-a][1,4]diazacyclopentadecin-6-yl)carbamate]
EC50 ([1]; read-out: LE_1a (EC50, range)): < 5.46 nM | EC50 ([2]; read-out: LE_1b (EC50, range)): < 5.46 nM

CCOc1nnc(O[C@@H]2C[C@H]3C(=O)N[C@]4(C(=O)NS(=O)(=O)C5(C)CC5)C[C@H]4/C=C\CC[C@H](C)C[C@@H](C)[C@H](NC(=O)OC(C)(C)C(F)(F)F)C(=O)N3C2)c2ccccc12 [Compound 5030, 1,1,1-trifluoro-2-methylpropan-2-yl((2R,6S,7R,9S,13aS,14aR,16aS,Z)-2-((4-ethoxyphthalazin-1-yl)oxy)-7,9-dimethyl-14a-(((1-methylcyclopropyl)sulfonyl)carbamoyl)-5,16-dioxo-1,2,3,5,6,7,8,9,10,11,13a,14,14a,15,16,16a-hexadecahydrocyclopropa[e]pyrrolo[1,2-a][1,4]diazacyclopentadecin-6-yl)carbamate]
EC50 ([1]; read-out: LE_1a (EC50, range)): 4.82 to 103 nM | EC50 ([2]; read-out: LE_1b (EC50, range)): 4.82 to 103 nM

CCOc1nnc(O[C@@H]2C[C@H]3C(=O)N[C@]4(C(=O)NS(=O)(=O)C5(C)CC5)C[C@H]4/C=C\CC[C@@H](C)C[C@@H](C)[C@H](NC(=O)OC(C)(C)C(F)(F)F)C(=O)N3C2)c2ccccc12 [Compound 5031, 1,1,1-trifluoro-2-methylpropan-2-yl((2R,6S,7R,9R,13aS,14aR,16aS,Z)-2-((4-ethoxyphthalazin-1-yl)oxy)-7,9-dimethyl-14a-(((1-methylcyclopropyl)sulfonyl)carbamoyl)-5,16-dioxo-1,2,3,5,6,7,8,9,10,11,13a,14,14a,15,16,16a-hexadecahydrocyclopropa[e]pyrrolo[1,2-a][1,4]diazacyclopentadecin-6-yl)carbamate]
EC50 ([1]; read-out: LE_1a (EC50, range)): < 5.46 nM | EC50 ([2]; read-out: LE_1b (EC50, range)): < 5.46 nM

[2H]C([2H])([2H])C(OC(=O)N[C@@H]1C(=O)N2C[C@H](Oc3nnc(OCC)c4ccccc34)C[C@H]2C(=O)N[C@]2(C(=O)NS(=O)(=O)C3(C)CC3)C[C@H]2/C=C\CC[C@H](C)C[C@H]1C)(C([2H])([2H])[2H])C(F)(F)F [Compound 5032]
EC50 ([1]; read-out: LE_1a (EC50, range)): 4.82 to 103 nM | EC50 ([2]; read-out: LE_1b (EC50, range)): 4.82 to 103 nM

[2H]C([2H])([2H])C(OC(=O)N[C@@H]1C(=O)N2C[C@H](Oc3nnc(OCC)c4ccccc34)C[C@H]2C(=O)N[C@]2(C(=O)NS(=O)(=O)C3(C)CC3)C[C@H]2/C=C\CC[C@@H](C)C[C@H]1C)(C([2H])([2H])[2H])C(F)(F)F [Compound 5033]
EC50 ([1]; read-out: LE_1a (EC50, range)): < 5.46 nM | EC50 ([2]; read-out: LE_1b (EC50, range)): < 5.46 nM

CCOc1nnc(O[C@@H]2C[C@H]3C(=O)N[C@]4(C(=O)NS(=O)(=O)C5CC5)C[C@H]4/C=C\CC[C@H](C)C[C@@H](C)[C@H](NC(=O)OC(C)(C)C)C(=O)N3C2)c2ccccc12 [Compound 5034, tert-butyl ((2R,6S,7R,9S,13aS,14aR,16aS,Z)-14a-((cyclopropylsulfonyl)carbamoyl)-2-((4-ethoxyphthalazin-1-yl)oxy)-7,9-dimethyl-5,16-dioxo-1,2,3,5,6,7,8,9,10,11,13a,14,14a,15,16,16a-hexadecahydrocyclopropa[e]pyrrolo[1,2-a][1,4]diazacyclopentadecin-6-yl)carbamate]
EC50 ([1]; read-out: LE_1a (EC50, range)): 4.82 to 103 nM | EC50 ([2]; read-out: LE_1b (EC50, range)): 4.82 to 103 nM

CCOc1nnc(O[C@@H]2C[C@H]3C(=O)N[C@]4(C(=O)NS(=O)(=O)C5CC5)C[C@H]4/C=C\CC[C@@H](C)C[C@@H](C)[C@H](NC(=O)OC(C)(C)C)C(=O)N3C2)c2ccccc12 [Compound 5035, tert-butyl ((2R,6S,7R,9R,13aS,14aR,16aS,Z)-14a-((cyclopropylsulfonyl)carbamoyl)-2-((4-ethoxyphthalazin-1-yl)oxy)-7,9-dimethyl-5,16-dioxo-1,2,3,5,6,7,8,9,10,11,13a,14,14a,15,16,16a-hexadecahydrocyclopropa[e]pyrrolo[1,2-a][1,4]diazacyclopentadecin-6-yl)carbamate]
EC50 ([1]; read-out: LE_1a (EC50, range)): < 5.46 nM | EC50 ([2]; read-out: LE_1b (EC50, range)): < 5.46 nM

CCOc1nnc(O[C@@H]2C[C@H]3C(=O)N[C@]4(C(=O)NS(=O)(=O)C5CC5)C[C@H]4/C=C\CC[C@H](C)C[C@@H](C)[C@H](NC(=O)OC(C)(C)C(F)(F)F)C(=O)N3C2)c2ccccc12 [Compound 5036, 1,1,1-trifluoro-2-methylpropan-2-yl((2R,6S,7R,9S,13aS,14aR,16aS,Z)-14a-((cyclopropylsulfonyl)carbamoyl)-2-((4-ethoxyphthalazin-1-yl)oxy)-7,9-dimethyl-5,16-dioxo-1,2,3,5,6,7,8,9,10,11,13a,14,14a,15,16,16a-hexadecahydrocyclopropa[e]pyrrolo[1,2-a][1,4]diazacyclopentadecin-6-yl)carbamate]
EC50 ([1]; read-out: LE_1a (EC50, range)): 4.82 to 103 nM | EC50 ([2]; read-out: LE_1b (EC50, range)): 4.82 to 103 nM

CCOc1nnc(O[C@@H]2C[C@H]3C(=O)N[C@]4(C(=O)NS(=O)(=O)C5CC5)C[C@H]4/C=C\CC[C@@H](C)C[C@@H](C)[C@H](NC(=O)OC(C)(C)C(F)(F)F)C(=O)N3C2)c2ccccc12 [Compound 5037, 1,1,1-trifluoro-2-methylpropan-2-yl((2R,6S,7R,9R,13aS,14aR,16aS,Z)-14a-((cyclopropylsulfonyl)carbamoyl)-2-((4-ethoxyphthalazin-1-yl)oxy)-7,9-dimethyl-5,16-dioxo-1,2,3,5,6,7,8,9,10,11,13a,14,14a,15,16,16a-hexadecahydrocyclopropa[e]pyrrolo[1,2-a][1,4]diazacyclopentadecin-6-yl)carbamate]
EC50 ([1]; read-out: LE_1a (EC50, range)): < 5.46 nM | EC50 ([2]; read-out: LE_1b (EC50, range)): < 5.46 nM

[2H]C([2H])([2H])C(OC(=O)N[C@@H]1C(=O)N2C[C@H](Oc3nnc(OCC)c4ccccc34)C[C@H]2C(=O)N[C@]2(C(=O)NS(=O)(=O)C3CC3)C[C@H]2/C=C\CC[C@H](C)C[C@H]1C)(C([2H])([2H])[2H])C(F)(F)F [Compound 5038]
EC50 ([1]; read-out: LE_1a (EC50, range)): 4.82 to 103 nM | EC50 ([2]; read-out: LE_1b (EC50, range)): 4.82 to 103 nM

[2H]C([2H])([2H])C(OC(=O)N[C@@H]1C(=O)N2C[C@H](Oc3nnc(OCC)c4ccccc34)C[C@H]2C(=O)N[C@]2(C(=O)NS(=O)(=O)C3CC3)C[C@H]2/C=C\CC[C@@H](C)C[C@H]1C)(C([2H])([2H])[2H])C(F)(F)F [Compound 5039]
EC50 ([1]; read-out: LE_1a (EC50, range)): < 5.46 nM | EC50 ([2]; read-out: LE_1b (EC50, range)): < 5.46 nM
